Assay [1] deals with T1, human recombinant beta-2 adrenoreceptors (Homo sapiens, UniProt P07550).
T1 construct: expressed in transfected cells; host or cells: CHO cells
Kind of assay: Functional agonism of human recombinant beta-2 adrenoreceptors expressed in CHO cells (cAMP, HTRF). The class given is cell-based. The conditions noted are these: cAMP elevation, 30 min. The protocol:
Functional Agonism of Human Recombinant Beta-2 Adrenoreceptors Expressed in Chinese Hamster Oocytes (CHO)
Test compounds were incubated for 30 min with CHO cells expressing the human recombinant beta-2 adrenoreceptors. Agonism of the receptor was measured by the elevation of intracellular cyclic-AMP over control levels detected using a homogeneous time resolved fluorescence (HTRF) format. Compounds were determined to be “full” or “partial” agonists based on the maximum level of cAMP accumulated compared to the control compound isoproterenol which is a full agonist in this assay system. Concentration response curves were generated for test compounds and the EC50 (molar concentration of the agonist which produced 50% of the maximal response for that compound) was determined. These assays were performed using a protocol based on the original description of the assay by Baker, J. G. (2005) Brit. J. Pharmacol.; 144:317-322.
EC50 determinations for the compounds presented above are seen in the third column of Table 1 (Beta 2 EC50).
(In TR-FRET formats the signal depends on donor and acceptor labels being close together.)

For another assay, the target named is T2, Human recombinant PDE4B2 (Homo sapiens, UniProt Q07343).
T2 construct: purchased BPS Bioscience
Briefly: Inhibition of PDE4B2 enzyme activity (PDE Glo Assay). It is filed as biochemical. The conditions noted are these: human recombinant PDE4B2, 50 nM cAMP; read-out: PDE4 IC50. As for the experimental part: Inhibition of PDE4B4 Enzyme Activity
The inhibitory activity of test compounds were determined using the PDE Glo Assay (Promega, V1361). The PDE-Glo Reaction Buffer was prepared (1 mL 5× buffer+4 mL water) and 150 nM solution of test compound dissolved in the Reaction Buffer, followed by 1:3 serial dilutions into Reaction Buffer. […] Human recombinant PDE4B2 (BPS Bioscience) was added to test compound in Reaction Buffer at a concentration of 0.12 nM per reaction. The enzyme and test compound were pre-incubated together at rt for 10 min. 50 nM of the enzyme substrate cAMP was then added to initiate the enzyme reaction, with the reaction terminated after one hour. Termination Buffer (1 mL 5× termination buffer+3.9 mL water+100 μL of 100 mM IBMX (ICN Chemicals, in DMSO)), was added to each reaction well to terminate the reaction. Detection Buffer (1 mL 5×PDE-Glo Detection buffer+3.96 mL water+40 μL PKA (supplied in kit)) was added to the cAMP-enzyme-test compound mix and this secondary reaction proceeded for 20 minutes at rt. An equal volume of Kinase Glo Reagent was then added to the reaction mixture and after 10 min luminescence was measured using a luminometer (EnVision, 0.1 sec read for luminescence). Luminescence values were […] related to levels of cAMP in the reaction mixture. Data were plotted as relative light units (RLU) versus test compound concentration and the IC50 determined using GraphPad Prism 5.0, using a nonlinear curve fit in a single-site binding model.
IC50 determinations for the compounds presented above are seen in the first column of Table 1 (PDE4 IC50).

For assay [2], the system named is LPS-induced TNF-α release from human peripheral blood mononuclear cells (PBMC). Kind of assay: Inhibition of LPS-induced TNF-α release from human PBMC. It is filed as cell-based. The conditions noted are these: LPS 0.4 ng/mL, 6 h, presence or absence of ICI-118551 not given. The source says:
Inhibition of Lipopolysaccharide (LPS)-Induced Tumour Necrosis Factor Alpha (TNF-α) Release from Human Peripheral Blood Mononuclear Cells (PBMC)
Human whole blood was drawn from donors and cell purification initiated within two hours. Peripheral blood mononuclear cells (PBMC) were purified using a standard Ficoll gradient purification technique and aliquoted at a concentration of 100,000 cells/well in 96 well plates. Beta-2 adrenoreceptor agonists are also anti-inflammatory for some immune cells expressing the receptor and in this assay they can inhibit tumor necrosis factor-alpha (TNF-α) production. Therefore PBMC were pre-incubated for 30 min in the presence of the beta-2 adrenoreceptor antagonist ICI-118551 (3-(isopropylamino)-1-[(7-methyl-4-indanyl)oxy]butan-2-ol) (10 μM) to determine the PDE4 directed activity of test compounds, and in the absence of ICI-118551 for the combined PDE4 and beta-2 receptor directed activity. Test compounds were dissolved in DMSO and diluted in buffer (final DMSO concentration of 0.1% v/v) and were then added to the cell suspensions and pre-incubated for a further 1 h at 37° C. LPS solution was then added (0.4 ng/mL) and the cells incubated for a further 6 h. At the end of the incubation period the cell supernatants were collected and TNF-α was measured using a Procarta Cytokine Assay Kit (Affymetrix, Santa Clara, Calif.) according to the manufacturers' instructions. Data were analyzed using MiraiBio Masterplex QT v4.0 software (MasterPlex Version 1.0.1.18 Copyright 2008, Hitachi Software Engineering Co., Ltd) and used to extrapolate Mean Fluorescence Intensity (MFI) into concentrations of TNF-α and mean values from replicate wells were determined. Inhibition curves were plotted using a nonlinear curve fit employing a single-site binding model to determine the IC50 value for each test compound in the presence or absence of ICI-118551 using GraphPad Prism 5 for Windows, version 5.02 (GraphPad Software, San Diego Calif.).
EC50 determinations for the compounds presented above are seen in the fourth column of Table 1 (PBMC TNF EC50).

Assay [3] addresses T1, human recombinant beta-2 adrenoreceptors. Kind of assay: Beta-2 adrenoceptor binding assay, displacement of [3H](−)CGP-12177. The conditions noted are these: CHO cells expressing human beta-2 adrenoreceptors, [3H](−)CGP-12177 0.3 nM, 120 min. The protocol: Beta-2 Adrenoceptor Binding Assay
Test compounds were incubated for 120 min with Chinese hamster oocyte (CHO) cells expressing the human recombinant beta-2 adrenoreceptors. Binding of test compounds to the beta-2 adrenoreceptors was determined by measuring the displacement of the radiolabeled ligand [^3H](−)CGP-12177 (0.3 nM) from the receptor measured by a scintillation counting. Concentration response curves were generated for test compounds and the IC50 (molar concentration of the compound which produced 50% inhibition for the maximal response for that compound) was determined. These assays were performed using a protocol based on the original description of the assay by Joseph et al., (2004) Naun.-Sch. Arch. Pharm.; 369:525-532.
IC50 determinations for the compounds presented above are seen in the second column of Table 1 (Beta 2 IC50).
(In general: In a radioligand displacement assay an active substance lowers the binding of a labelled ligand.)

SMILES strings stand for the structures. pEC50, pIC50: −log10 of the molar value.

As a reminder, the pEC50 is the negative decadic logarithm of the EC50, by convention in mol/L. The term pIC50 denotes the IC50 on a negative log10 scale, so that one unit is a factor of ten.

T1 sequence (P07550 whole entry): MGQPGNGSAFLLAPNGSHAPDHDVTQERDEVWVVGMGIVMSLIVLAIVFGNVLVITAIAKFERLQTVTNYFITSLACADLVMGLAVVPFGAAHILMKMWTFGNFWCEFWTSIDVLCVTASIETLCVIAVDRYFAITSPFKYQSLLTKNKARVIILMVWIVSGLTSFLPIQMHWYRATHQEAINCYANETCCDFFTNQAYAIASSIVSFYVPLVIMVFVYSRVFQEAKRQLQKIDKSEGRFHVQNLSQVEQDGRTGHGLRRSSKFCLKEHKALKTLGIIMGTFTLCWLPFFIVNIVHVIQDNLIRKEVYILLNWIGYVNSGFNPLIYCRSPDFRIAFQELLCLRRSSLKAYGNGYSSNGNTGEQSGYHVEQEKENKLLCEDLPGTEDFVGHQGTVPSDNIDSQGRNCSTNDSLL
T2 sequence (Q07343 1-564 isoform Q07343-2): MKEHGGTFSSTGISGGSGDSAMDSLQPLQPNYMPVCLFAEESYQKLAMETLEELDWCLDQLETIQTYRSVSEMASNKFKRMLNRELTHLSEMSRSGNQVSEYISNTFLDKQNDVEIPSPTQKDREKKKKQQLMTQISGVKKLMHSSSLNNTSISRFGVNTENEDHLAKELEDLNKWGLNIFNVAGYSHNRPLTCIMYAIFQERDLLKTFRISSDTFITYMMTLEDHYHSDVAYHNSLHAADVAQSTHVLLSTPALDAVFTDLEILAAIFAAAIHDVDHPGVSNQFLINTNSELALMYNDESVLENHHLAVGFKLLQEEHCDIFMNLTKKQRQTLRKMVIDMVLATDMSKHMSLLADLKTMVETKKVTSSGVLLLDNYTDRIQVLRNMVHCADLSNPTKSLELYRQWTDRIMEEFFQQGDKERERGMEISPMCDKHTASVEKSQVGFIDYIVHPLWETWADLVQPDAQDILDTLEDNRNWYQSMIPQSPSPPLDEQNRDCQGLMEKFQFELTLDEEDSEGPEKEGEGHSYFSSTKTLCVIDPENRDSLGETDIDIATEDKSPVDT

Take `CCc1nc2c(cnn2CC)c(NC2CCOCC2)c1CNC(=O)c1cccc(CNC[C@H](O)c2ccc(O)c3[nH]c(=O)ccc23)c1` [Example 5, (R)—N-[[1,6-Diethyl-4-[(tetrahydro-2H-pyran-4-yl)amino]-1H-pyrazolo[3,4-b]pyridin-5-yl]methyl]-3-[[[2-hydroxy-2-(8-hydroxy-2-oxo-1,2-dihydroquinolin-5-yl)ethyl]amino]methyl]benzamide]: the pEC50 in assay [1] and in assay [2] was over 7.00 throughout. In addition, the pIC50 is over 7.00 at Human recombinant PDE4B2 and over 6.52 in assay [3].
Consider `CCc1nc2c(cnn2CC)c(NC2CCOCC2)c1CNC(=O)c1ccc(CNC[C@H](O)c2ccc(O)c3[nH]c(=O)ccc23)cc1` [Example 6, (R)—N-[[1,6-diethyl-4-[(tetrahydro-2H-pyran-4-yl)amino]-1H-pyrazolo[3,4-b]pyridin-5-yl]methyl]-4-[[[2-hydroxy-2-(8-hydroxy-2-oxo-1,2-dihydroquinolin-5-yl]ethyl]amino]methyl]benzamide], for which the negative logarithm of the EC50 (pEC50) in assay [1] and in assay [2] was over 7.00 each time. The values for the pIC50 (at Human recombinant PDE4B2; in assay [3]) were over 7.00 and under 6.52, respectively.
For `CCc1nc2c(cnn2CC)c(NC2CCOCC2)c1CNC(=O)c1cccc(CC(C)NC[C@H](O)c2ccc(O)c3[nH]c(=O)ccc23)c1` (stereo partly drawn) [Example 1, N-[[1,6-Diethyl-4-[(tetrahydro-2H-pyran-4-yl)amino]-1H-pyrazolo[3,4-b]pyridin-5-yl]methyl]-3-[2-[[(R)-2-hydroxy-2-(8-hydroxy-2-oxo-1,2-dihydroquinolin-5-yl)ethyl]amino]propyl]benzamide], the pEC50 in assay [1] and in assay [2] was over 7.00 throughout. Besides, the pIC50 (on Human recombinant PDE4B2; in assay [3]) was over 7.00 each time.
